Source: patent US20090181420A1, “Inhibiting Smad signaling promotes neuron regeneration” (Children's Medical Center Corporation, priority 2006, published 2009)

Columns and labels:
[1] = test system: adult DRG neurons (L4 and L5); experiment: Axonal growth ability of injected adult DRG neurons cultured in vitro for 12 hrs; format: in vivo, rat; conditions: injected into adult DRG; 3 or 7 days post-injection, cultured 12 hrs; vs saline
Protocol: (§1) Average axon length of the longest neurite from every individual neuron was measured and quantified as described before (Koprivica et al., 2005; Wang et al., 2002a; Wang et al., 2002b). Branching frequency was measured by dividing the number of branches from the longest neurite by the length of the neurite, as previously described (Smith and Skene, 1997). All measurements were made from at least 150 neurons per condition, from duplicate wells and from three independent experiments.
We next examined whether inhibiting this signaling pathway could enhance the intrinsic growth state of adult DRG neurons by pharmacological approaches. We injected SB505124 or the same volume of saline into the adult DRG (L4 and L5). 3 or 7 days post-injection, the axonal growth ability of injected DRG neurons were assayed by culturing DRG neurons in vitro for 12 hrs.

[2] = test system: phospho-Smad2; experiment: Phospho-Smad2 in adult DRG after intraganglionic injection; format: in vivo, rat; conditions: 2 μl of 5-10 mM injected into adult DRG (L4 and L5); pilot experiments
[3] = test system: Smad2/3 signaling; experiment: Directed forepaw reaching (DFR) task after dorsal corticospinal tract transection; format: in vivo, Sprague Dawley rats; conditions: rats, sixth week after surgery; SB-505124 30 mg/kg tail vein or siRNA 10 μl intrathecal, days 1-7; vs lesion and vehicle groups
Text: Adult Sprague Dawley rats (300-400 gm) are trained and tested in a directed forepaw reaching (DFR) apparatus which measures grasping ability. The apparatus, which is described in detail by Nash et al., supra, is a box that consists of two compartments: a main compartment for housing the rats and a minor compartment for the food, separated by a Plexiglas divider. The minor compartment is subdivided into slots of equal size, each holding a pellet of food. Between the slots and the Plexiglas there is a gap. The apparatus is configured such that in order to retrieve a food pellet from a slot, a rat must extend a forelimb through a hole in the Plexiglas divider, and grasp the pellet and lift it over the gap and out of the slot. If the rat merely rakes the food in the slot towards the hole in the Plexiglas, the food will drop from the slot into the gap and fall to the floor of the minor compartment. The floor of the minor compartment can be configured to allow a rat to retrieve food that drops or it can be lowered to prevent the rat from reaching dropped food. Prior to inducing spinal injury, the rats are food restricted, receiving ˜3 gm food/100 gm body weight per day, before and throughout training and testing. Weight is monitored to ensure that rats are reduced to no less than 80% of their original body weight at any time. […]

[4] = test system: Smad2/3 signaling; experiment: Count of BDT-labeled CST axons caudal to spinal cord lesion; format: in vivo, Sprague Dawley rats; conditions: rats, seven weeks and 3 d after lesioning; 1-19 mm caudal to lesion; vs lesioned control rats
Text: Rats are randomly assigned to control or experimental groups. Sham control rats undergo surgical procedure without lesioning, and with or without placement of an intrathecal catheter. Lesioned control rats receive no treatment, tail injection vehicle only treatment, intrathecal catheter only treatment, intrathecal catheter with vehicle only treatment, or intrathecal catheter and mismatch siRNA treatment. After anesthesia with isoflurane, the rats are placed on an operating board in such a way as to bend the cervical spinal cord for maximum exposure. A laminectomy is performed exposing the dorsum of the spinal cord between C2 and C4. The dorsal columns are identified bilaterally, and, in all rats except for those in the sham group, a suture needle is passed through the spinal cord, isolating the dorsal funiculus. The suture thread is gently lifted, and a pair of iridectomy scissors is used to bilaterally transect the dorsal funiculus, thereby transecting the dorsal corticospinal tract (CST). […]
Seven weeks after injury, rats are prepared for injection of biotin dextran tetramethylrhodamine (BDT; Molecular Probes). […] After anesthesia with isoflurane (5%), rats are placed in a stereotaxic instrument, and a total of six stereotaxically determined holes (0.9 mm diameter) are drilled in the skull over the primary motor cortices associated with the forelimbs. […]

[5] = test system: adult DRG neurons; experiment: Effect of activin A on axonal elongation of adult DRG neurons (prior experiments); format: cell-based
[6] = test system: embryonic DRG neurons; experiment: Effect of activin A on axonal growth ability of embryonic DRG neurons (prior experiments); format: cell-based
[7] = test system: cerebellar granule neurons (CGNs) from postnatal rats; experiment: Axonal growth of cerebellar granule neurons overexpressing Smad7; format: cell-based, rat; conditions: Smad7 expression, effect became stronger with time
Protocol: (§2) For overexpression of Smad7 in DRGs, adult rat DRG neurons were co-transfected by electroporation with 2 μg pEGFP (Invitrogen) and 5 μg of an expression construct for FLAG-tagged Smad7 (Nakao et al., 1997) or control plasmid using the Rat Neuron Nucleofector Kit (Amaxa) following manufacturer's protocol. After brief purification, the neurons were plated at a density of 200-500 cells/mm2. For overexpression of Smad7 in cerebellar granule neurons (CGN), CGNs from P6 Sprague-Dawley rat pups were dissected, plated onto poly-D-lysine (20 μg/ml), and cultured in Basal Medium Eagle (Gibco) supplemented with 10% calf serum, 25 mM KCl, 2 mM L-glutamine, penicillin and streptomycin, at a density of 2.5×10^3 cells/mm2. CGNs were co-transfected with pEGFP and Smad7 or control plasmid at a 1 to 3 ratio using a modified calcium phosphate transfection method as described before (Konishi et al., 2004). […]
as §1, with “All measurements were made from at least 150 neurons per condition, from duplicate wells and from three independent experiments.” left out

[8] = test system: dissociated adult rat DRG neurons; experiment: Axonal growth of adult rat DRG neurons overexpressing Smad7; format: cell-based; conditions: Smad7 overexpression vs control GFP
Protocol: as §2
as §1, with “All measurements were made from at least 150 neurons per condition, from duplicate wells and from three independent experiments.” left out

What does the source list for `Cc1cccc(-c2[nH]c(C(C)(C)C)nc2-c2ccc3c(c2)OCO3)n1.Cl` [SB-505124, 2-(5-benzo[1,3]dioxol-5-yl-2-tert-butyl-3H-imidazol-4-yl)-6-methylpyridinehydrochloride]?
axonal elongation of DRG neurons [1]: significantly increased axonal elongation; branching frequency of DRG neurons [1]: reduced branching frequency; phospho-Smad2 in the injected DRGs [2]: significant reduction of phospho-Smad2; DFR task performance (functional recovery after spinal injury) [3]: Significantly better performance; number of BDT-labeled axons caudal to the lesion [4]: Significantly more labeled axons at each distance

B1: activin A: TGFβ family member produced in skin (protein, UniProt P08476 311-426, looked up)
Inhibin beta A chain: GLECDGKVNICCKKQFFVSFKDIGWNDWIIAPSGYHANYCEGECPSHIAGTSGSSLSFHSTVINHYRMRGHSPFANLKSCCVPTKLRPMSMLYYDDGQNIIKKDIQNMIVEECGCS
Which axonal elongation ability [5] does the source give for B1 here?
The axonal elongation ability was “reduces axonal elongation ability”.

And the axonal growth ability [6]?
The axonal growth ability was “triggers a decline in axonal growth ability”.

B2: Smad7: FLAG-tagged Smad7 overexpressed from an expression construct; competes with Smad2/3 for binding to activated ALK (protein, UniProt O15105 1-426, looked up)
Mothers against …: MFRTKRSALVRRLWRSRAPGGEDEEEGAGGGGGGGELRGEGATDSRAHGAGGGGPGRAGCCLGKAVRGAKGHHHPHPPAAGAGAAGGAEADLKALTHSVLKKLKERQLELLLQAVESRGGTRTACLLLPGRLDCRLGPGAPAGAQPAQPPSSYSLPLLLCKVFRWPDLRHSSEVKRLCCCESYGKINPELVCCNPHHLSRLCELESPPPPYSRYPMDFLKPTADCPDAVPSSAETGGTNYLAPGGLSDSQLLLEPGDRSHWCVVAYWEEKTRVGRLYCVQEPSLDIFYDLPQGNGFCLGQLNSDNKSQLVQKVRSKIGCGIQLTREVDGVWVYNRSSYPIFIKSATLDNPDSRTLLVHKVFPGFSIKAFDYEKAYSLQRPNDHEFMQQPWTGFTVQISFVKGWGQCYTRQFISSCPCWLEVIFNSR
modifications: FLAG tag
B2 was tested. Which axonal growth rate [7] did it give?
Its axonal growth rate is “dramatically increase axonal growth rate”.

And the “rate of axonal growth” value [8]?
Its value is “significantly enhanced the rate of axonal growth”.
